Each block holds one compound with its values, some of them ahead of it. Residues, ends and D or L forms follow the SMILES beside them. *: point of attachment. 5FAM = O=C1OC2(c3ccc(O)cc3Oc3cc(O)ccc32)c2ccc(C(=O)*)cc21
Assays:
sciatic nerves [1] = assay: In vivo nerve labeling with fluorescently labeled peptides (nerve versus adjacent non-nerve tissue); parameters: species or system mice; settings: for nerve to muscle contrast: FAM-labeled peptides intravenously
Procedure: To test the nerve binding affinity of each of the isolated peptide sequences in vivo, carboxyfluorescein (FAM)-labeled peptides were injected intravenously into living mice. Following a wash-out period, the contrast between nerve and muscle binding of the labeled peptides was evaluated.
Wild-type albino C57BL6 (Jackson Laboratory) or SKH1 (Charles River Laboratories) mice were treated intravenously with 150 nmoles of fluorescently labeled SEQ ID NO:4 via tail vein injection. Following a 2-3 hour wash-out period for SEQ ID NO:25 or 5-6 hours for SEQ ID NO:31, mice were anesthetized with ketamine and midazolam (80 mg/kg intraperitoneally), a skin incision was made over the dorsal surface of the hind, legs and the sciatic nerves exposed bilaterally. […] Nerves and adjacent non-nerve tissue was delineated with Image J and relative fluorescence was measured. Following background subtraction using dark current measurements and measurements of a standard, the ratios of peptide binding to nerve versus adjacent non-nerve tissue were calculated.

[2] = test system: sciatic nerves and surrounding non-nerve tissue; type: in vivo, mice
Text: To evaluate the time course of peptide binding to nerve tissue, sciatic nerves and surrounding non-nerve tissue in living mice were imaged before and after intravenous administration of SEQ ID NO:25, Prior to administration of SEQ ID NO: 25 (FIG. 3A), there was little contrast of the nerve (arrowheads) in relation to surrounding non-nerve tissue. Within seconds following intravenous administration of SEQ ID NO:25 (FIG. 3B), the fluorescent injectate could be seen leaking from capillaries (arrows), including capillaries associated with the sciatic nerves (insert). […] Useful contrast between nerve and surrounding muscle begins to develop by 2-3 hours after intravenous injection (FIG. 3E) and lasts several hours (FIG. 3F). […] Serum half-life was calculated at ˜10 minutes.
Female 8 week-old SKH1 mice were anesthetized with ketamine and midazolam and a skin incision was made over the dorsal surface of the hind legs and the sciatic nerves exposed. A preinjection image was taken a dissecting microscope (Lumar Zeiss) and a monochrome camera (Coolsnap). The mice were treated intravenously with […] of SEQ ID NO:25 via, tail vein injection. Sequential fluorescence imaging was then performed as described above: excitation 470/40 nm, emission 525/50 nm, exposure 15 milliseconds-5 seconds. Nerves and adjacent non-nerve tissue were delineated with Image J and relative fluorescence was measured. Quantification of fluorescence was then performed following subtraction of dark current and normalizing to a standard.

[3] = Generalized toxicity: activity, behavior and weight gain; type: in vivo, mice; settings: single intravenous injection of 15-5,000 nmoles, up to 8 weeks of monitoring
Procedure: To evaluate generalized toxicity following peptide administration, the generalized activity, behavior and weight gain of mice after a single intravenous injection of 15-5,000 nmoles of SEQ ID NO:25 was studied.
Female 8 week-old SKH1 mice (average weight 25 g) were treated with varying amounts of SEQ ID NO:25 ranging from 15-5,000 nmoles. Generalized activity, behavior and weight gain were evaluated following single intravenous injection of 15-5,000 nmoles of […] on a daily basis for 3 clays following injection. Thereafter, the mice were monitored three times per week for 8 weeks.

[4] = Peptide biodistribution and metabolism (organ fluorescence, LC-MS and MALDI of urine); type: in vivo, mice
Procedure: (§1) To evaluate the biodistribution of the peptide following systemic administration, organs were harvested from mice treated with SEQ ID NO:4 and fluorescence uptake was evaluated. […] To evaluate the metabolism of the peptide as it passed through the renal system, liquid chromatography-mass spectrometry (LC-MS, Agilent) tracing was used to compare urine obtained from mice injected with SEQ ID NO:25 or SEQ ID NO:31 intravenously versus urine from normal mice spiked with the native SEQ ID NO:25 or SEQ ID NO:31. […] Next, matrix-assisted. laser desorption/ionization (MALDI) was used to evaluate the nature of the modification to the peptide as it was metabolized.
as §1, with “NO:25 and” for “NO:25 or”, “ID NO:3” for “ID NO:31”, “ID NO:25.” for “ID NO:25 or SEQ ID NO:31.”, “Next, matrix-assisted” for “Next, matrix-assisted.”

sciatic nerve [5] = assay: Effect of nerve injury (crush, devascularization) on labeling; type: in vivo, mice
Procedure: The ability of peptides to label peripheral nerves following nerve crush injury was evaluated in mice using SEQ ID NO:25. […] (Occasionally, nerve labeling immediately at the site of injury was slightly diminished compared to nerve labeling several centimeters away from the site of injury (FIG. 6D), but this observation was highly variable (FIGS. 6B,F) and not statistically significant (FIG. 6I)).
Wild type mice were anesthetized and the left sciatic nerve exposed and crushed with microforceps for 3-5 seconds. Muscular contractions during the crush after immediately afterwards were monitored to ensure uniformity of the injury. The skin incision was then closed and mice returned to their cages to recover. At varying times after crush injury, intravenous SEQ ID NO:25 (150 nmoles) was administered. Two to three hours after intravenous SEQ ID NO:25 treatment, the mice were anesthetized, bilateral sciatic nerves exposed and quantitative fluorescence microscopy was used to measure nerve fluorescence. Nerve and adjacent muscle fluorescence were measured using Image J software by measuring standardized boxed regions. Crushed and contralateral control nerve fluorescence were compared for each animal.

[6] = test system: human recurrent laryngeal nerve; assay: Human nerve labeling: resected recurrent laryngeal nerves and adjacent muscle incubated with peptide; type: binding
Procedure: To evaluate whether or not SEQ ID NO:25 could selectively bind human nerves as compared to non-nerve tissue, freshly resected recurrent laryngeal nerves and adjacent muscle obtained from patients undergoing total laryngectomy for laryngeal cancer were incubated with SEQ ID NO:25. […] This binding pattern is similar to the binding pattern observed in mice.
To evaluate whether or not SEQ ID NO:25 could selectively bind human nerves as compared to non-nerve tissue, freshly resected recurrent laryngeal nerves and adjacent muscle obtained from patients undergoing total laryngectomy for laryngeal cancer were incubated with SEQ ID NO:25 at […] for 15 minutes and washed in saline for 15 minutes each. The nerve and muscle segments were then placed on a black non-fluorescent plate and imaged (Maestro, CRI). The nerve segments were then embedded in Tissue-Tek®, frozen and cryosectioned. 7-10 μm cryosections were then. imaged with standard fluorescence microscopy. Adjacent sections were stained with hematoxylin and eosin (H&E) and imaged.

sciatic nerves [7] = assay: In vivo nerve labeling with fluorescently labeled peptides (nerve versus adjacent non-nerve tissue); parameters: species or system mice
dissected nerve tissue = assay: In vitro nerve binding: dissected nerve tissue incubated with peptide; parameters: species or system mice; settings: 100 nM peptide, one hour incubation
sciatic nerves [8] = assay: Dose response of peptide binding (nerve to muscle contrast ratio); type: in vivo, mice; settings: 5,000 nmoles, at 2 hours
Procedure: To determine the dose response of peptide binding, the nerve to muscle contrast ratio was measured as a function of the amount of peptide administered (FIG. 4D).
Female 8 week-old SKH1 mice (average weight 25 g) were treated with varying amounts of SEQ ID NO:25 ranging from […]. After a 2 hour washout period, mice were sacrificed and sciatic nerves exposed. Nerves and adjacent non-nerve tissue were delineated with Image 3 and relative fluorescence was measured. Quantification of fluorescence was then performed following subtraction of dark current and normalizing to a standard. For the mice injected with 5,000 nmoles of SEQ ID NO:4, it was noted that background fluorescence was still very high at 2 hours, making the contrast ratio low even though the absolute nerve fluorescence was high. For these mice, the skin incisions were repaired and the mice were allowed to awaken from anesthesia, then at 6 hours following initial SEQ ID NO:4 administration, the mice were sacrificed and the sciatic nerves exposed and analyzed as above.

sciatic nerve [9] = assay: Histology: localization of binding in nerves of thy1-YFP transgenic mice; type: in vivo; settings: mouse, in vivo
Text: To evaluate the localization of SEQ ID NO:4 binding in nerves, we treated thy1-YFP transgenic mice whose axons are genetically encoded with YFP under a neuron specific promoter (Feng et al, Imaging neuronal subsets in transgenic mice expressing multiple spectral variants of GFP. Neuron, 2000) with SEQ ID NO:31. […] These deeper nerve structures were not easily seen either with brightfield (FIG. 5A, insert) or YFP (FIG. 5B, insert) imaging. To evaluate the localization of SEQ ID NO:4 binding on a cellular level, we imaged cryosections (3-5 μm) of nerves and attached muscles from thy1-YFP animals treated with SEQ ID NO:31.

sciatic nerve conduction = settings: mouse, in vivo
Procedure: Maximal compound muscle action potential amplitude (CMAP) and nerve conduction latency were measured as described in Osuchowski et al, Noninvasive model of sciatic nerve conduction in healthy and septic mice: reliability and normative data, Muscle Nerve, 2009), Briefly, control female 8 week-old SKH1 mice and mice treated with SEQ ID NO:25 were anesthetized with ketamine-midazolam and placed in a prone position. CMAP potentials were evoked (Grass stimulator) with stimulating electrode (Medtronics) placed 2 mm lateral to the midline. The recording electrode was an ear-clip electrode (Life-tech.com) placed on the digits of the hind foot and the reference electrode was placed on the heel of the foot. Maximal CMAPs were generated by gradually increasing the stimulation (5-10V, 1 pulse per second, paired, 0.5-2 sec duration) until a maximal, artifact free tracing was obtained. The CMAP traces were captured on a digital oscilloscope (Tektronic). Nerve conduction latency was measured from the beginning of the stimulation to the start of the upslope. CMAP amplitude was measured from the start of the upslope to the peak.

MBP = test system: MBP
Procedure: To test the nerve binding affinity of each of the isolated peptide sequences in vitro, dissected nerve tissue was removed from mice and incubated for one hour with 100 nM of each peptide, including a control peptide made up of amino acids that were contained within the various phages selected and sequenced, but in a mixed-up order and designed without repeating any single amino acid except for glycine (which was added to the C-terminus as a flexible linker).

Compound: CC(=O)N[C@@H](CO)C(=O)N[C@@H](Cc1c[nH]cn1)C(=O)N[C@@H](CO)C(=O)N[C@@H](CC(N)=O)C(=O)N[C@H](C(=O)N[C@@H](CCC(N)=O)C(=O)N[C@H](C(=O)N[C@@H](CC(C)C)C(=O)N[C@@H](C)C(=O)N[C@@H](CCCCN)C(=O)N[C@@H](C)C(=O)N1CCC[C@H]1C(=O)N[C@@H](CCC(=O)O)C(=O)N[C@@H](Cc1c[nH]cn1)C(=O)N[C@H](C(=O)NCC(=O)N[C@@H](CCCCNC(=O)c1ccc2c(c1)C(=O)OC21c2ccc(O)cc2Oc2cc(O)ccc21)C(N)=O)[C@@H](C)O)[C@@H](C)O)[C@@H](C)O [SEQ ID NO:25, acetyl-SHSNTQTLAKAPEHTGK(5,6FAM)-amide] (Ac-SHSNTQTLAKAPEHTGK(5FAM)-NH2)
- Nerve contrast (sciatic nerves [1]; derivatives of peptide SEQ ID NO: 4): High
- time at which useful contrast between nerve and surrounding muscle begins to develop ([2]; after intravenous injection): 2 to 3 h
- nerve to muscle contrast ratio ([2]; by 4-5 hours post-injection): 8-10 fold
- visible contrast between nerve and muscle ([2]; by 24 hrs post-injection): all visible contrast between nerve and muscle had disappeared
- time of highest muscle fluorescence ([2]; mouse, in vivo, iv): highest immediately following intravenous administration
- time of peak nerve fluorescence post-administration ([2]; mouse, in vivo, iv): around 10 minutes
- generalized activity, behavior and weight gain versus uninjected/control mice [3]: did not have any apparent changes
- native peptide detectable in urine of intravenously injected mice ([4]; LC-MS): none
- only fluorescently labeled entity identified in urine ([4]; MALDI): lysine-FAM
- nerve labeling compared to contralateral control nerve (sciatic nerve [5]; 1 day after crush injury): intact
- decrease of nerve labeling compared to contralateral control nerve (sciatic nerve [5]; 3 days after crush injury): 40%
- nerve labeling compared to contralateral control nerve (sciatic nerve [5]; 7 days after crush injury): returned to control levels
- nerve fluorescence compared to contralateral control side (sciatic nerve [5]; immediately following nerve devascularization): highly diminished
- binding to human nerves as compared to adjacent muscle ([6]; 50 μM for 15 minutes): Selective binding
- pattern of nerve binding in human tissue ([6]; tissue sections): connective tissue surrounding the nerve, i.e. epineurium, perineurium, and endoneurium
- systemic survey of nerves labeled (sciatic nerves [7]; facial nerve, brachial plexus, sciatic nerve): all nerves were brightly labeled

- nerve to muscle contrast ratio (sciatic nerves [8]): low
- colocalization of labeling with myelin or axons (sciatic nerve [9]): does not appear to colocalize
- colocalization of labeling with myelin or axons (sciatic nerve [9]; listed as SEQ ID NO: 4): does not colocalize
Compound: NTQTLAKAPEHT (peptide that specifically binds to a neuron, nerve, or component of either) [SEQ ID NO:4]
- uptake/binding to dissected nerve tissue compared to no peptide or control peptide (dissected nerve tissue): two-fold increase over control to no difference from control
- nerve fluorescence relative to adjacent non-neural tissue (sciatic nerves [1]; FAM-labeled peptide intravenously, living mice, exposed sciatic nerves, after wash-out): 4 fold
- nerve to muscle contrast (sciatic nerves [1]; living mice, after wash-out): best nerve to non-nerve contrast
- generalized activity, behavior and weight gain versus uninjected/control mice [3]: similar
- biodistribution following systemic administration (organ fluorescence uptake) ([4]; mouse, in vivo): accumulated in the kidney and was excreted into the urine
- nerve labeling after injury (sciatic nerve [5]; 3 days following injury): diminished
- nerve labeling compared to contralateral control nerve (sciatic nerve [5]; 7 days after crush injury): recovers
- nerve fluorescence as a function of distance from crush site (sciatic nerve [5]; mouse, in vivo): does not significantly diminish
- shape of the CMAP curve versus control animals (sciatic nerve conduction): similar
- labeling of nerves in the central nervous system (CNS) (sciatic nerves [7]; mouse, in vivo): no evidence of labeling

Compound: TYTDWLNFWAWP (peptide that specifically binds to a neuron, nerve, or component of either) [SEQ ID NO:2]
- uptake/binding to dissected nerve tissue compared to no peptide or control peptide (dissected nerve tissue): little increase
- increase in binding to MBP crosslinked beads compared to control beads (with no MBP) (MBP): 10 fold
- nerve to muscle contrast (sciatic nerves [1]; living mice, after wash-out): little significant nerve-to muscle contrast

Reference: patent publication US8685372B2, “Peptides and aptamers for targeting of neuron or nerves” (The Regents of the University of California, priority 2009, dated 2014)
